This experiment concerns solid tumors. Nature of the experiment: Phase I pharmacological trial, iv single administration every three weeks. In kind it is in vivo, patients. The settings on record: one patient suffering from gastrointestinal sarcoma, dose level 5.1 mg/m^2, iv infusion. The procedure:
A phase I pharmacological trial was carried out to investigate the iv administration of the title compound given as a single administration every three weeks to patients with solid tumors.
The starting dose of 0.85 mg/m^2 was initially escalated in an accelerated design (100% dose increase, 1 patient/dose level) and then by a conventional dose escalation in 3-6 patient cohorts. 11 patients have been entered so far and 25 cycles have been evaluated for toxicity at dose levels of 0.85, 1.7, 3.4, 5.1 and 7.5 mg/m^2.

Take `C=C(Br)C(=O)Nc1cc(C(=O)Nc2cc(C(=O)Nc3cc(C(=O)Nc4cc(C(=O)NCCNC(=N)N)n(C)c4)n(C)c3)n(C)c2)n(C)c1.Cl` [PNU 166196, N-(5-{[(5-{[(5-{[(2-{[amino(imino)methyl]amino}ethyl)amino]carbonyl}-1-methyl-1H-pyrrol-3-yl)amino]carbonyl}-1-methyl-1H-pyrrol-3-yl)amino]carbonyl}-1-methyl-1H-pyrrol-3-yl)-4-[(2-bromoacryloyl)amino]-1-methyl-1H-pyrrole-2-carboxamide hydrochloride]: the tumor response result is recorded as “partial response”.

(Values after US6576612B1, “Antitumor therapy comprising distamycin derivatives” (Pharmacia Italia S.p.A., priority 2000, dated 2003).)
